{"source": "paper PMC7281072", "about": "(Cancers, 2020)", "key": {"[1]": {"system": "SKOV-3 human ovarian adenocarcinoma xenograft", "set-up": "species or system CB17 SCID mice", "details": "mouse, in vivo"}, "[2]": {"system": "OVCAR-5 human ovarian adenocarcinoma xenograft", "set-up": "species or system CB17 SCID mice", "details": "mouse, in vivo"}, "CB17 SCID mice": {"system": "CB17 SCID mice", "details": "both, mouse, in vivo, ip"}, "in vivo": {"experiment": "in vivo", "details": "both, CB17 SCID, mouse, ip"}}}
{"smiles": "NC(Cc1ccc(N(CCCl)CCCl)cc1)C(=O)O", "note": "[L-PAM, 2-amino-3-(4-(bis (2-chloroethyl)amino)phenyl) propanoic acid, reference compound]", "values": [{"measurement": "Median Overall Survival (OS)", "setting": "[1]", "value": 49, "unit": "days"}, {"measurement": "Progression Free Survival (PFS)", "setting": "[1]", "value": 0, "unit": "days"}, {"measurement": "Response Rate (RR)", "setting": "[1]", "value": 0, "unit": "%"}, {"measurement": "antitumor activity (in words)", "setting": "[1]", "value": "no significant antitumor activity"}, {"measurement": "Cures (mice alive for 120 days after tumor inoculation)", "setting": "[1]; ip", "value": "0/5"}, {"measurement": "MST (mean survival time)", "setting": "[1]; ip", "value": "48.5 ± 2.3", "unit": "days"}, {"measurement": "T/C% (mean survival time of treated versus saline controls)", "setting": "[1]; ip", "value": 119.7, "unit": "%"}, {"measurement": "TI% (Tumor Inhibition)", "setting": "[1]; ip", "value": 10.5, "unit": "%"}, {"measurement": "Median Overall Survival (OS)", "setting": "[2]", "value": 60, "unit": "days"}, {"measurement": "Progression Free Survival (PFS)", "setting": "[2]", "value": 0, "unit": "days"}, {"measurement": "Response Rate (RR)", "setting": "[2]", "value": 0, "unit": "%"}, {"measurement": "antitumor activity (in words)", "setting": "[2]", "value": "no significant antitumor activity"}, {"measurement": "Cures (mice alive for 120 days after tumor inoculation)", "setting": "[2]; ip", "value": "0/5"}, {"measurement": "MST (mean survival time)", "setting": "[2]; ip", "value": "61.0 ± 4.3", "unit": "days"}, {"measurement": "T/C% (mean survival time of treated versus saline controls)", "setting": "[2]; ip", "value": 120.8, "unit": "%"}, {"measurement": "TI% (Tumor Inhibition)", "setting": "[2]; ip", "value": 24.5, "unit": "%"}, {"measurement": "LD10", "setting": "CB17 SCID mice", "value": 14, "unit": "mg/kg"}, {"measurement": "LD50", "setting": "in vivo", "value": 20.8, "unit": "mg/kg"}]}
